Assay results: ChEMBL document CHEMBL1201862, “PubChem BioAssay data set” (2004)
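Step 1: Grow cells in 96-well plates. Step 2: Expose to compound for 48 hours at 5 concentrations. Step 3: Interpolate endpoints linearly; if unreached, use highest concentration. The concentration for 50% growth inhibition is given as GI50.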 Calls of active or inactive are those of the source. No stated cut-off is given here; in the data, active = GI50 up to about 1.1 µM and inactive = higher.

Legend:
Assay in all cases: NCI anticancer screen, dose series, 48 h
[1] = test system: MDA-N
[2] = test system: A498
[3] = test system: CAKI-1
[4] = test system: OVCAR-4
[5] = test system: NCI/ADR-RES
[6] = test system: ACHN
[7] = test system: SNB-19
[8] = test system: T47D
[9] = test system: KM12
[10] = test system: A549
[11] = test system: BT-549
[12] = test system: NCI-H460
[13] = test system: OVCAR-8
[14] = test system: IGROV-1
[15] = test system: Malme-3M
[16] = test system: SF-295
[17] = test system: U-251
[18] = test system: SR
[19] = test system: OVCAR-3

Measured: GI50

Clc1ccc(/C(=C/c2ccccc2)Cn2ccnc2)cc1
inactive: [1] 16.8 µM | [2] 22.6 µM | [3] 19.3 µM | [4] 22.6 µM | [5] 20.4 µM | [6] 16.6 µM | [7] 12 µM | [8] 12 µM | [9] 13.2 µM | [10] 24.8 µM | [11] 22.4 µM | [12] 26.9 µM | [13] 26.9 µM | [14] 17.9 µM | [15] 8.97 µM | [16] 12.7 µM | [17] 21.8 µM | [18] 19.8 µM

CC(=O)Nc1cccc(N2C(=O)/C(=C\c3cccc(Oc4ccccc4)c3)SC2c2ccccc2)c1 (stereo not drawn)
inactive: [1] 28.1 µM | [2] > 100 µM | [3] > 100 µM | [4] 53.5 µM | [5] 60.8 µM | [6] 99.8 µM | [7] > 100 µM | [8] 78.7 µM | [19] 50.7 µM | [9] 80.7 µM | [10] 94.8 µM | [11] > 100 µM | [12] > 100 µM | [13] 92.5 µM | [15] > 100 µM | [16] > 100 µM | [17] 35.5 µM | [18] 17.2 µM

CC(C)(C)OC(=O)NC(Cc1ccc(OCc2ccccc2)cn1)C(=O)N1CCCC1 (stereo not drawn)
inactive: [1] 55.8 µM | [2] > 100 µM | [3] > 100 µM | [5] 25.1 µM | [6] > 100 µM | [7] > 100 µM | [8] 27.4 µM | [19] 25.6 µM | [9] 65.5 µM | [10] > 100 µM | [11] 31.1 µM | [12] 78 µM | [13] 40.6 µM | [14] > 100 µM | [15] 30.3 µM | [16] 30.1 µM | [17] 86.7 µM | [18] > 100 µM

O=C1/C(=C\c2cccc(Oc3ccccc3)c2)SC(c2ccccc2)N1Cc1ccccc1 (stereo not drawn)
inactive: [1] 17 µM | [2] 37.7 µM | [3] 49.7 µM | [4] 31.6 µM | [5] 20.4 µM | [6] 52.8 µM | [7] 24.7 µM | [8] 26.2 µM | [19] 23.5 µM | [9] 24.5 µM | [10] 29.4 µM | [11] 25.2 µM | [12] 33.3 µM | [13] 22.4 µM | [15] 22.2 µM | [16] 35.3 µM | [17] 18.4 µM | [18] 23.9 µM

CN1C(=O)CN(NC(=O)C2=C(O)c3ccc(Br)cc3S(=O)(=O)N2)C1=S
inactive: [1] 45.3 µM | [2] > 100 µM | [3] > 100 µM | [4] > 100 µM | [5] > 100 µM | [6] > 100 µM | [7] > 100 µM | [8] > 100 µM | [9] 78.3 µM | [10] > 100 µM | [11] > 100 µM | [12] > 100 µM | [13] > 100 µM | [14] > 100 µM | [15] 33.4 µM | [16] > 100 µM | [17] > 100 µM | [18] 46.1 µM

C[n+]1c2ccccc2n2c3ccccc3c(NCCCn3ccnc3)c(C#N)c21
inactive: [1] 2.7 µM | [2] 13.4 µM | [3] 10.5 µM | [4] 1.61 µM | [5] > 42 µM | [6] 3.48 µM | [7] 4.01 µM | [8] 1.61 µM | [19] 2.36 µM | [9] 2.01 µM | [10] 3.92 µM | [11] 17.6 µM | [12] 1.44 µM | [13] 1.55 µM | [15] 1.9 µM | [16] 3.74 µM | [17] 2.18 µM | [18] 1.27 µM

CCCc1[nH]nc(C(N)=O)c1/N=N/N(C)C
inactive: [1] > 100 µM | [2] 71.6 µM | [3] 28.4 µM | [4] 54.1 µM | [5] 91 µM | [6] 44.2 µM | [7] > 100 µM | [8] 54 µM | [19] > 100 µM | [9] 37.1 µM | [10] 42.4 µM | [11] 24.3 µM | [13] 76.2 µM | [14] 28.5 µM | [15] 98.2 µM | [16] 57.9 µM | [17] 55.8 µM | [18] 10.5 µM

Cc1cn(C2CCN(CC3COC(C)(C)O3)O2)c(=O)[nH]c1=O (stereo not drawn)
inactive: [1] > 100 µM | [2] > 100 µM | [3] > 100 µM | [4] > 100 µM | [5] > 100 µM | [6] > 100 µM | [8] > 100 µM | [19] > 100 µM | [9] > 100 µM | [10] > 100 µM | [11] > 100 µM | [12] > 100 µM | [13] > 100 µM | [14] > 100 µM | [15] > 100 µM | [16] > 100 µM | [17] > 100 µM | [18] > 100 µM

Cc1cc(O)nc(/N=C(\N)Nc2ccc(Cl)cc2)n1
inactive: [1] > 100 µM | [2] > 100 µM | [3] > 100 µM | [5] > 100 µM | [6] > 100 µM | [7] > 100 µM | [8] > 100 µM | [19] > 100 µM | [9] > 100 µM | [10] > 100 µM | [11] > 100 µM | [12] > 100 µM | [13] > 100 µM | [14] > 100 µM | [15] > 100 µM | [16] > 100 µM | [17] > 100 µM | [18] > 100 µM

Cc1c(Cl)nc(Nc2nc3ccccc3[nH]2)nc1Cl
inactive: [1] > 100 µM | [2] > 100 µM | [3] 6.71 µM | [4] 29 µM | [5] > 100 µM | [6] > 100 µM | [7] > 100 µM | [8] 43.7 µM | [9] 17.1 µM | [10] > 100 µM | [11] > 100 µM | [12] > 100 µM | [13] 41.7 µM | [14] 36.2 µM | [15] > 100 µM | [16] > 100 µM | [17] > 100 µM | [18] 19.9 µM

Cc1cn2c(/C=C3/C(=O)Nc4ccccc43)c(-c3ccccc3)nc2s1
inactive: [1] > 100 µM | [2] 72.3 µM | [3] > 100 µM | [5] 37.5 µM | [6] 32.2 µM | [7] 24.3 µM | [8] 38.9 µM | [19] 85.3 µM | [9] > 100 µM | [10] > 100 µM | [11] 32.9 µM | [12] 78.2 µM | [13] 54.3 µM | [14] 40.5 µM | [15] > 100 µM | [16] 37.5 µM | [17] 29.3 µM | [18] > 100 µM
